Our source for the IC50 values is publication PMC6443962, “Anti-nociceptive and Anti-inflammatory Activities of Asparacosin A Involve Selective Cyclooxygenase 2 and Inflammatory Cytokines Inhibition: An in-vitro, in-vivo, and in-silico Approach” (Frontiers in Immunology, 2019).

SMILES strings stand for the structures. pIC50: −log10 of the molar value.

Test [1] addresses T1, COX-2 (cyclooxygenase 2, human recombinant) (Homo sapiens, UniProt P35354).
T1 construct: gene PTGS2
T1 sequence (P35354 18-604): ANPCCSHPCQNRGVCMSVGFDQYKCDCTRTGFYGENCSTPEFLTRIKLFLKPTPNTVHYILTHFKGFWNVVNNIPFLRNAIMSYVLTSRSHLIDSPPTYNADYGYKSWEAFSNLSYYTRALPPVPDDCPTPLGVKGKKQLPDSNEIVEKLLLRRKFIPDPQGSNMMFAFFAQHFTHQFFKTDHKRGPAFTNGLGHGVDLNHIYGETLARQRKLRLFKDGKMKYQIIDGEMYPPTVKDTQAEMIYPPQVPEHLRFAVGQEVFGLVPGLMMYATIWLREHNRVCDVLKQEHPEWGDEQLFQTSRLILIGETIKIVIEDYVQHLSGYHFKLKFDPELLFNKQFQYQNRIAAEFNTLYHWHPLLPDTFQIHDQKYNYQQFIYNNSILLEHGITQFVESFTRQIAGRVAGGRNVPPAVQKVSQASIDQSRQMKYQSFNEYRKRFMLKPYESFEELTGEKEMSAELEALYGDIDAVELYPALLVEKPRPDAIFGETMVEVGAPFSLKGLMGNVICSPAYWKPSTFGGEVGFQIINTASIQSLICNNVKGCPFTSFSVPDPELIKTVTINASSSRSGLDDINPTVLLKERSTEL
Put plainly: colorimetric COX inhibitor screening assay (Cayman kit […]). In kind it is biochemical.

The target of test [2] is T2, COX-1 (cyclooxygenase 1, ovine) (Ovis aries, UniProt P05979).
T2 construct: gene PTGS1
T2 sequence (P05979 25-600): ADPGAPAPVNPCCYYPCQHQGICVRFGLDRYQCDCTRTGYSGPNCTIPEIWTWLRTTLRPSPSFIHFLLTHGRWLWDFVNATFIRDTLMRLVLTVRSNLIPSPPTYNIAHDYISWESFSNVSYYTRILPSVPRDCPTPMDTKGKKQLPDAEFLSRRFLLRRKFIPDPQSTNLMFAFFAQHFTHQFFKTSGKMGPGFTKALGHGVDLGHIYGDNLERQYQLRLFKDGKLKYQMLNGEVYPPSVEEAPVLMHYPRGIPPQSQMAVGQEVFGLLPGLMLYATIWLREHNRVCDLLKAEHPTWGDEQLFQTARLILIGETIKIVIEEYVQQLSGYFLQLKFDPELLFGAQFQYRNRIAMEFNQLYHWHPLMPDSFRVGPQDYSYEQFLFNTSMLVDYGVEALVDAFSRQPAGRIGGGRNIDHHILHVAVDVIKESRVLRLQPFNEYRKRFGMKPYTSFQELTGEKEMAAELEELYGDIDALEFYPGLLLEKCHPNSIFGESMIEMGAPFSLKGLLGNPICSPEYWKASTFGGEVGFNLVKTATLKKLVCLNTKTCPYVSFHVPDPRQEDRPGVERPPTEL
The test is described as above. Type of test: biochemical.

For orientation: IC50 means the concentration that inhibits the measured activity by half. The pIC50 is the negative decadic logarithm of the IC50, by convention in mol/L. The low end stands for a high IC50, the high end for a low IC50.

As to `C[C@@H]1CC[C@@]2(OC1)O[C@H]1C[C@H]3[C@@H]4CCC5=CC(=O)CC[C@]5(C)[C@H]4C[C@@H](O)[C@]3(C)[C@@]1(O)[C@@H]2C` [Asparacosin A], the IC50 in test [1] stood at 0.6 µM. The compound also gave a pIC50 in test [2] of 4.62.
